From the METLIN SMRT retention time set (Domingo-Almenara et al. 2019)

Experiment: gradient 5% acetonitrile 3 min, to 50% in 2 min, to 85% in 15 min, held 3 min, 100 µL/min
Settings: column: Zorbax Extend-C18 2.1 x 50 mm; eluents: water / acetonitrile, 0.1% formic acid
Outline: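 Standards, all pure, were combined into mixtures of ~100 molecules and run at 100 μL/min on a Zorbax Extend-C18 column (2.1 × 50 mm, 1.8 μm) with water and acetonitrile, each containing 0.1% formic acid. A coupled quadrupole time-of-flight mass spectrometer operated in positive and negative ionization mode. Retention time values come from computationally picked adduct peaks, each inspected manually.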

## Cc1ccccc1NC(=O)N1C[C@@H](F)C[C@H]1C(=O)N1CCc2ccccc2C1
  RP-LC retention time: 780 s

## COc1cccc(NC(=O)CC(=O)Nc2ccc3nc4n(c(=O)c3c2)CCCCC4)c1
  RP-LC retention time: 1210 s

## Cc1ccc(N(C)C(=O)n2cnc3ccccc32)cc1
  RP-LC retention time: 767 s

## Cc1nn(Cc2nc(-c3ccc(NC(=O)c4cccs4)cc3)oc2C)c(C)c1C
  RP-LC retention time: 922 s

## COC(=O)c1ccc(C(=O)Nc2cccc3c(OC)cccc23)cc1
  RP-LC retention time: 821 s

## O=C(NCCN1CCCCCC1)C(=O)Nc1ccc2nc3n(c(=O)c2c1)CCCCC3
  RP-LC retention time: 596 s

## COc1ccc(NC(=O)CCC2CCCN(c3cc(NC4CC4)ncn3)C2)cc1OC (stereo not drawn)
  RP-LC retention time: 645 s

## CC(C)Cn1nc2n(c1=O)CCN(S(=O)(=O)c1cccc3cccnc13)CC2
  RP-LC retention time: 754 s

## Cc1cccc2c1ncn1c(=O)n(CC(=O)Nc3ccc4c(c3)OCCO4)nc21
  RP-LC retention time: 637 s

## CC1=CC2=C(C=O)C(=O)[C@](C)(O)[C@@H](O)C2=CO1
  RP-LC retention time: 636 s

## COC(=O)c1c(C)[nH]c(C(=O)N2CCC(CC(=O)NC(C)CCc3ccccc3)CC2)c1C (stereo not drawn)
  RP-LC retention time: 880 s

## O=C(NCc1ccc(N2CCOCC2)nc1)c1ccc(C(F)(F)F)cc1
  RP-LC retention time: 642 s

## CSc1ccc(CNC(=O)C2CCCN(C(=O)Cc3cccc4ccccc34)C2)cc1 (stereo not drawn)
  RP-LC retention time: 951 s

## CC(=O)NCc1ccc(-c2noc(/C=C/c3cccc(Cl)c3)n2)s1
  RP-LC retention time: 903 s

## Cc1nc(Nc2ccc(Br)cn2)sc1C(=O)NCCN1CCCC1
  RP-LC retention time: 628 s

## Cc1ccn2cc(-c3ccc(NC(=O)C4CCCCC4)cc3)nc2n1
  RP-LC retention time: 657 s

## COc1ccc(OC)c(-c2cn3ccn(-c4cccc(Cl)c4)c(=O)c3n2)c1
  RP-LC retention time: 887 s

## Cc1ccc(N2CCC(NC(=O)c3ccc4nc[nH]c4c3)C2=O)cc1 (stereo not drawn)
  RP-LC retention time: 607 s

## O=C(NCCN1CCOCC1)C1=C2CCCN2c2ccc(F)cc2S1(=O)=O
  RP-LC retention time: 586 s

## CCC(C)NC(=O)N1CC(n2cc(C(=O)N3CCOCC3)nn2)C1 (stereo not drawn)
  RP-LC retention time: 608 s

## Cc1noc(C)c1S(=O)(=O)N1CC(CN(C)C)C2(CCOCC2)C1 (stereo not drawn)
  RP-LC retention time: 600 s

## CCCN(CC1CCOC1)C(=O)Nc1c(F)cccc1F (stereo not drawn)
  RP-LC retention time: 731 s

## Cc1cc(C)n(-c2ccnc(N3CCC(C(=O)NCc4ccco4)CC3)n2)n1
  RP-LC retention time: 742 s

## CC(=O)Nc1ccc(OCC(=O)NCc2ccc(N3CCOCC3)cc2)nc1
  RP-LC retention time: 604 s

## O=C(NCCc1ccccn1)c1cccc(N2CCNC(c3ccccc3)C2)n1 (stereo not drawn)
  RP-LC retention time: 554 s

## Cc1noc(C)c1Cc1c(C(=O)NCCn2c(C)cnc2C2CC2)noc1C
  RP-LC retention time: 623 s

## Cc1cc(Cl)ccc1S(=O)(=O)N1CCN(c2nc3ccncc3n(C)c2=O)CC1
  RP-LC retention time: 615 s

## COCCCn1cnc2c(-c3ccccc3)cn(CC(=O)NCc3ccc4c(c3)OCO4)c2c1=O
  RP-LC retention time: 855 s

## CCOC(=O)c1ccc(NC2=NS(=O)(=O)C(c3ccccc3)=C2C)cc1
  RP-LC retention time: 960 s

## COc1ncc(C(=O)N2CCN(c3ccccc3Cl)CC2)cn1
  RP-LC retention time: 811 s

## Cn1ncc(N2CCC(C(=O)NC3CCCC3)C2)cc1=O (stereo not drawn)
  RP-LC retention time: 630 s

## CCC(=O)Nc1ccc(-n2cnc(C(=O)N3CCc4ccccc4C3)c2)nc1
  RP-LC retention time: 721 s

## CCN(CC)S(=O)(=O)c1ccc2c(c1)N(CC(=O)NCc1cccnc1)C(=O)C1CCCCN21 (stereo not drawn)
  RP-LC retention time: 653 s

## CCN(CC)S(=O)(=O)c1ccc2c(c1)N(CC(=O)NCc1ccccc1)C(=O)C1CCCCN21 (stereo not drawn)
  RP-LC retention time: 945 s

## COCCc1noc(-c2cnc3nc(C)ccc3c2Nc2ccccc2)n1
  RP-LC retention time: 677 s

## Cc1ccccc1NC(=O)N1CCN(c2ccc(=O)n(-c3ccccc3)n2)CC1
  RP-LC retention time: 744 s

## O=C(Nc1ccc(F)cc1)c1nnc(COCC(=O)N2CCN(c3ccccn3)CC2)s1
  RP-LC retention time: 623 s

## Cc1ccc(CNC(=O)Cn2cnc3c(sc4nc(-c5ccccc5)ccc43)c2=O)cc1
  RP-LC retention time: 880 s

## COCCCNC(=O)N1CC(n2cc(COc3ccc(F)cc3)nn2)C1
  RP-LC retention time: 691 s

## O=C(Nc1cccc(F)c1)C1CCN(C(=O)c2ncn3c2COC(c2ccccc2)C3)CC1 (stereo not drawn)
  RP-LC retention time: 921 s

## COCC(=O)N1CC(c2nnc(C(C)C)o2)C2(CCOCC2)C1 (stereo not drawn)
  RP-LC retention time: 577 s

## O=S(=O)(c1ccc(-c2ccno2)s1)N1CCN(c2ccccn2)CC1
  RP-LC retention time: 680 s

## COc1ccc(-c2nc3cccnc3n2C2CCN(C(=O)NCC(C)C)C2)cc1 (stereo not drawn)
  RP-LC retention time: 680 s
